Consider ten compounds from ChEMBL document CHEMBL1938241, “Design, synthesis, and activity evaluation of broad-spectrum small-molecule inhibitors of anti-apoptotic Bcl-2 family proteins: characteristics of broad-spectrum protein binding and its effects on anti-tumor activity” (Bioorg Med Chem Lett, 2012).

Bcl-2-like protein 1, sequence (Q07817 whole entry): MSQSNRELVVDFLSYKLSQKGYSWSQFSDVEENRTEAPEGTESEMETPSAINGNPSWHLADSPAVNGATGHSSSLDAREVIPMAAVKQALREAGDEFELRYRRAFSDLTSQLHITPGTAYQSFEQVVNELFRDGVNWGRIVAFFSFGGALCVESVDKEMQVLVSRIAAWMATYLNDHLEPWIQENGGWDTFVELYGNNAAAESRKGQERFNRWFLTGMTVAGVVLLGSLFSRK
Induced myeloid leukemia cell differentiation protein Mcl-1, sequence (Q07820 whole entry): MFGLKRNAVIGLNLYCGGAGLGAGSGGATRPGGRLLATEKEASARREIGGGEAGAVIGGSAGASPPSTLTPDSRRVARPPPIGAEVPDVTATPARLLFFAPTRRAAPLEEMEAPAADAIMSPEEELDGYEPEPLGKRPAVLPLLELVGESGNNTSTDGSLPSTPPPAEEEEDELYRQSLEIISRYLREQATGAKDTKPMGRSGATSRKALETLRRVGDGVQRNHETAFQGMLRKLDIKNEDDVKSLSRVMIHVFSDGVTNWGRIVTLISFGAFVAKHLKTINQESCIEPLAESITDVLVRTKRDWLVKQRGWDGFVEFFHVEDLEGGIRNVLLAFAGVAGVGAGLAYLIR

One assay deals with Apoptosis regulator Bcl-2 (Homo sapiens, UniProt P10415). Description: Binding affinity to Bcl-2 by competitive fluorescence polarization assay.
Apoptosis regulator Bcl-2, sequence (P10415 whole entry): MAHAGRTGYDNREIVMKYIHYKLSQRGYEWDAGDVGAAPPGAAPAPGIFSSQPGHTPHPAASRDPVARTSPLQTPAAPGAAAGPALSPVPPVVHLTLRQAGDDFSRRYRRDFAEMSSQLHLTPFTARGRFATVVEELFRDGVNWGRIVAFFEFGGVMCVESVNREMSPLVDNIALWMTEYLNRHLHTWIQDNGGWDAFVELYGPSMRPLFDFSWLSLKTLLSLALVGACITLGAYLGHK
Conditions: not given
As to `CC(=O)N[C@@H](CC(C)C)C(=O)Nc1ccc(C(=O)NS(=O)(=O)c2ccc(NCCSc3ccccc3)c([N+](=O)[O-])c2)cc1`, the Ki amounted to 3.78 µM.

`CC[C@H](C)[C@H](NC(C)=O)C(=O)Nc1ccc(C(=O)NS(=O)(=O)c2ccc(NCCSc3ccccc3)c([N+](=O)[O-])c2)cc1`: the Ki came to 3.38 µM.

In the case of `CSCC[C@H](NC(C)=O)C(=O)Nc1ccc(C(=O)NS(=O)(=O)c2ccc(NCCSc3ccccc3)c([N+](=O)[O-])c2)cc1`, the affinity corresponds to a Ki of 3.52 µM.

`CC(=O)N[C@@H](Cc1ccccc1)C(=O)Nc1ccc(C(=O)NS(=O)(=O)c2ccc(NCCSc3ccccc3)c([N+](=O)[O-])c2)cc1`: the Ki is 3.39 µM.

As to `CC(=O)N[C@@H](Cc1c[nH]c2ccccc12)C(=O)Nc1ccc(C(=O)NS(=O)(=O)c2ccc(NCCSc3ccccc3)c([N+](=O)[O-])c2)cc1`, the Ki was 0.83 µM.

`CC(=O)N[C@H](C(=O)Nc1ccc(C(=O)NS(=O)(=O)c2ccc(NCCSc3ccccc3)c([N+](=O)[O-])c2)cc1)C(C)C` had a Ki of 9.49 µM.

`O=C(Nc1ccc(C(=O)NS(=O)(=O)c2ccc(NCCSc3ccccc3)c([N+](=O)[O-])c2)cc1)c1ccccc1` gave a Ki of 1.67 µM.

Regarding `O=C(NS(=O)(=O)c1ccc(NCCSc2ccccc2)c([N+](=O)[O-])c1)c1ccc(NC(=O)c2ccccc2F)cc1`, the Ki worked out at 1.09 µM.

`O=C(Nc1ccc(C(=O)NS(=O)(=O)c2ccc(NCCSc3ccccc3)c([N+](=O)[O-])c2)cc1)c1cccc(F)c1` returned a Ki of 1.4 µM.

`O=C(Nc1ccc(C(=O)NS(=O)(=O)c2ccc(NCCSc3ccccc3)c([N+](=O)[O-])c2)cc1)c1ccc(F)cc1`: the Ki was found to be 0.93 µM.

Another assay relates to MDA-MB-435. Kind of assay: Cytotoxicity against human MDA-MB-435 cells expressing Bcl-xL, Bcl-2 and Mcl-1 after 72 hrs by MTT assay. It is filed as functional, cell-based. The note with it: MDA-MB-435, 72 h. In general terms: Formazan colour is commonly taken as a measure of viable cells.
For `O=C(Nc1ccc(C(=O)NS(=O)(=O)c2ccc(NCCSc3ccccc3)c([N+](=O)[O-])c2)cc1)c1ccccc1`, half-maximal inhibition (IC50) was put at 59.9 µM.

Take `O=C(NS(=O)(=O)c1ccc(NCCSc2ccccc2)c([N+](=O)[O-])c1)c1ccc(NC(=O)c2ccccc2F)cc1`: 48.1 µM corresponded to half-maximal inhibition (IC50).

As to `O=C(Nc1ccc(C(=O)NS(=O)(=O)c2ccc(NCCSc3ccccc3)c([N+](=O)[O-])c2)cc1)c1cccc(F)c1`, the IC50 stood at 59.5 µM.

With `O=C(Nc1ccc(C(=O)NS(=O)(=O)c2ccc(NCCSc3ccccc3)c([N+](=O)[O-])c2)cc1)c1ccc(F)cc1`, the IC50 worked out at 57.5 µM.

Another assay has as its system Raji. Kind of assay: Cytotoxicity against human Raji cells expressing Bcl-xL, Bcl-2 and Mcl-1 after 72 hrs by MTT assay.
Conditions: not given
It is filed as functional, cell-based.
`O=C(Nc1ccc(C(=O)NS(=O)(=O)c2ccc(NCCSc3ccccc3)c([N+](=O)[O-])c2)cc1)c1ccccc1` had an IC50 of 39.8 µM.

For the compound `O=C(NS(=O)(=O)c1ccc(NCCSc2ccccc2)c([N+](=O)[O-])c1)c1ccc(NC(=O)c2ccccc2F)cc1`, the IC50 was 32.2 µM.

Take `O=C(Nc1ccc(C(=O)NS(=O)(=O)c2ccc(NCCSc3ccccc3)c([N+](=O)[O-])c2)cc1)c1cccc(F)c1`: the IC50 was determined as 39.4 µM.

Regarding `O=C(Nc1ccc(C(=O)NS(=O)(=O)c2ccc(NCCSc3ccccc3)c([N+](=O)[O-])c2)cc1)c1ccc(F)cc1`, the IC50 was 38.6 µM.

A further assay addresses Bcl-2-like protein 1 (Homo sapiens, UniProt Q07817). Kind of assay: Binding affinity to Bcl-xL by competitive fluorescence polarization assay.
Conditions: not given
`CC(=O)N[C@@H](CC(C)C)C(=O)Nc1ccc(C(=O)NS(=O)(=O)c2ccc(NCCSc3ccccc3)c([N+](=O)[O-])c2)cc1` gave a Ki of 5.82 µM.

`CC[C@H](C)[C@H](NC(C)=O)C(=O)Nc1ccc(C(=O)NS(=O)(=O)c2ccc(NCCSc3ccccc3)c([N+](=O)[O-])c2)cc1` showed a Ki of 4.84 µM.

As for `CSCC[C@H](NC(C)=O)C(=O)Nc1ccc(C(=O)NS(=O)(=O)c2ccc(NCCSc3ccccc3)c([N+](=O)[O-])c2)cc1`, the Ki worked out at 3.91 µM.

For the compound `CC(=O)N[C@@H](Cc1ccccc1)C(=O)Nc1ccc(C(=O)NS(=O)(=O)c2ccc(NCCSc3ccccc3)c([N+](=O)[O-])c2)cc1`, the affinity corresponds to a Ki of 3.42 µM.

For `CC(=O)N[C@@H](Cc1c[nH]c2ccccc12)C(=O)Nc1ccc(C(=O)NS(=O)(=O)c2ccc(NCCSc3ccccc3)c([N+](=O)[O-])c2)cc1`, the Ki was determined as 6.45 µM.

Compound `CC(=O)N[C@H](C(=O)Nc1ccc(C(=O)NS(=O)(=O)c2ccc(NCCSc3ccccc3)c([N+](=O)[O-])c2)cc1)C(C)C` had a Ki of 16.4 µM.

Regarding `O=C(Nc1ccc(C(=O)NS(=O)(=O)c2ccc(NCCSc3ccccc3)c([N+](=O)[O-])c2)cc1)c1ccccc1`, the Ki turned out to be 2.51 µM.

`O=C(NS(=O)(=O)c1ccc(NCCSc2ccccc2)c([N+](=O)[O-])c1)c1ccc(NC(=O)c2ccccc2F)cc1` yielded a Ki of 1.71 µM.

In turn, `O=C(Nc1ccc(C(=O)NS(=O)(=O)c2ccc(NCCSc3ccccc3)c([N+](=O)[O-])c2)cc1)c1cccc(F)c1` registered a Ki of 2.08 µM.

For `O=C(Nc1ccc(C(=O)NS(=O)(=O)c2ccc(NCCSc3ccccc3)c([N+](=O)[O-])c2)cc1)c1ccc(F)cc1`, the Ki was 1.94 µM.

Another assay deals with HCT-116. Description: Cytotoxicity against human HCT116 cells expressing Bcl-xL, Bcl-2 and Mcl-1 after 72 hrs by MTT assay. It is filed as functional, cell-based. As to conditions: HCT-116, 72 h.
`O=C(Nc1ccc(C(=O)NS(=O)(=O)c2ccc(NCCSc3ccccc3)c([N+](=O)[O-])c2)cc1)c1ccccc1` registered an IC50 of 136 µM.

In turn, `O=C(NS(=O)(=O)c1ccc(NCCSc2ccccc2)c([N+](=O)[O-])c1)c1ccc(NC(=O)c2ccccc2F)cc1` came in with an IC50 of 40 µM.

In turn, `O=C(Nc1ccc(C(=O)NS(=O)(=O)c2ccc(NCCSc3ccccc3)c([N+](=O)[O-])c2)cc1)c1cccc(F)c1` displayed an IC50 greater than 168 µM.

For `O=C(Nc1ccc(C(=O)NS(=O)(=O)c2ccc(NCCSc3ccccc3)c([N+](=O)[O-])c2)cc1)c1ccc(F)cc1`, the IC50 is 78.9 µM.

A further assay addresses Induced myeloid leukemia cell differentiation protein Mcl-1 (Homo sapiens, UniProt Q07820). Description: Binding affinity to Mcl-1 by competitive fluorescence polarization assay.
Conditions: not given
For orientation: Polarisation of emitted light reports the rotation of a fluorescent probe.
As for `CC(=O)N[C@@H](CC(C)C)C(=O)Nc1ccc(C(=O)NS(=O)(=O)c2ccc(NCCSc3ccccc3)c([N+](=O)[O-])c2)cc1`, the Ki turned out to be 1.8 µM.

Compound `CC[C@H](C)[C@H](NC(C)=O)C(=O)Nc1ccc(C(=O)NS(=O)(=O)c2ccc(NCCSc3ccccc3)c([N+](=O)[O-])c2)cc1` gave a Ki of 2.29 µM.

Compound `CSCC[C@H](NC(C)=O)C(=O)Nc1ccc(C(=O)NS(=O)(=O)c2ccc(NCCSc3ccccc3)c([N+](=O)[O-])c2)cc1` had a Ki of 3.11 µM.

`CC(=O)N[C@@H](Cc1ccccc1)C(=O)Nc1ccc(C(=O)NS(=O)(=O)c2ccc(NCCSc3ccccc3)c([N+](=O)[O-])c2)cc1` registered a Ki of 3.11 µM.

In turn, `CC(=O)N[C@@H](Cc1c[nH]c2ccccc12)C(=O)Nc1ccc(C(=O)NS(=O)(=O)c2ccc(NCCSc3ccccc3)c([N+](=O)[O-])c2)cc1` had a Ki of 4.03 µM.

`CC(=O)N[C@H](C(=O)Nc1ccc(C(=O)NS(=O)(=O)c2ccc(NCCSc3ccccc3)c([N+](=O)[O-])c2)cc1)C(C)C` returned a Ki of 3.27 µM.

Take `O=C(Nc1ccc(C(=O)NS(=O)(=O)c2ccc(NCCSc3ccccc3)c([N+](=O)[O-])c2)cc1)c1ccccc1`: the Ki was found to be 4.16 µM.

In the case of `O=C(NS(=O)(=O)c1ccc(NCCSc2ccccc2)c([N+](=O)[O-])c1)c1ccc(NC(=O)c2ccccc2F)cc1`, affinity was put at a Ki of 3.02 µM.

`O=C(Nc1ccc(C(=O)NS(=O)(=O)c2ccc(NCCSc3ccccc3)c([N+](=O)[O-])c2)cc1)c1cccc(F)c1` registered a Ki of 3.09 µM.

For `O=C(Nc1ccc(C(=O)NS(=O)(=O)c2ccc(NCCSc3ccccc3)c([N+](=O)[O-])c2)cc1)c1ccc(F)cc1`, the Ki stood at 2.54 µM.

For another assay, the system named is MDA-MB-435. Kind of assay: Cytotoxicity against human MDA-MB-435 cells expressing Bcl-xL, Bcl-2 and Mcl-1 at 100 ug/ml after 72 hrs by MTT assay relative to control. It is filed as functional. The note with it: MDA-MB-435, 72 h, read-out: GI.
In the case of `CC(=O)N[C@@H](CC(C)C)C(=O)Nc1ccc(C(=O)NS(=O)(=O)c2ccc(NCCSc3ccccc3)c([N+](=O)[O-])c2)cc1`, the inhibition of growth at 100 µg/mL came out at 25.6%.

Consider `CC[C@H](C)[C@H](NC(C)=O)C(=O)Nc1ccc(C(=O)NS(=O)(=O)c2ccc(NCCSc3ccccc3)c([N+](=O)[O-])c2)cc1`, for which the inhibition of growth at 100 µg/mL turned out to be 13.5%.

`CSCC[C@H](NC(C)=O)C(=O)Nc1ccc(C(=O)NS(=O)(=O)c2ccc(NCCSc3ccccc3)c([N+](=O)[O-])c2)cc1`: the inhibition of growth at 100 µg/mL worked out at 16%.

As to `CC(=O)N[C@@H](Cc1ccccc1)C(=O)Nc1ccc(C(=O)NS(=O)(=O)c2ccc(NCCSc3ccccc3)c([N+](=O)[O-])c2)cc1`, the inhibition of growth at 100 µg/mL stood at 36.6%.

As to `CC(=O)N[C@@H](Cc1c[nH]c2ccccc12)C(=O)Nc1ccc(C(=O)NS(=O)(=O)c2ccc(NCCSc3ccccc3)c([N+](=O)[O-])c2)cc1`, the inhibition of growth at 100 µg/mL was 9.36%.

On to `CC(=O)N[C@H](C(=O)Nc1ccc(C(=O)NS(=O)(=O)c2ccc(NCCSc3ccccc3)c([N+](=O)[O-])c2)cc1)C(C)C`, for which the inhibition of growth at 100 µg/mL was 6.33%.

A further assay has as its system Raji. Description: Cytotoxicity against human Raji cells expressing Bcl-xL, Bcl-2 and Mcl-1 at 100 ug/ml after 72 hrs by MTT assay relative to control. It is filed as functional. The note with it: read-out: GI.
For the compound `CC(=O)N[C@@H](CC(C)C)C(=O)Nc1ccc(C(=O)NS(=O)(=O)c2ccc(NCCSc3ccccc3)c([N+](=O)[O-])c2)cc1`, the inhibition of growth at 100 µg/mL came out at 58.3%.

`CC[C@H](C)[C@H](NC(C)=O)C(=O)Nc1ccc(C(=O)NS(=O)(=O)c2ccc(NCCSc3ccccc3)c([N+](=O)[O-])c2)cc1`: the inhibition of growth at 100 µg/mL amounted to 40.9%.

For the compound `CSCC[C@H](NC(C)=O)C(=O)Nc1ccc(C(=O)NS(=O)(=O)c2ccc(NCCSc3ccccc3)c([N+](=O)[O-])c2)cc1`, the inhibition of growth at 100 µg/mL was 40.1%.

As to `CC(=O)N[C@@H](Cc1ccccc1)C(=O)Nc1ccc(C(=O)NS(=O)(=O)c2ccc(NCCSc3ccccc3)c([N+](=O)[O-])c2)cc1`, the inhibition of growth at 100 µg/mL turned out to be 26.8%.

As for `CC(=O)N[C@@H](Cc1c[nH]c2ccccc12)C(=O)Nc1ccc(C(=O)NS(=O)(=O)c2ccc(NCCSc3ccccc3)c([N+](=O)[O-])c2)cc1`, the inhibition of growth at 100 µg/mL worked out at 31.8%.

Consider `CC(=O)N[C@H](C(=O)Nc1ccc(C(=O)NS(=O)(=O)c2ccc(NCCSc3ccccc3)c([N+](=O)[O-])c2)cc1)C(C)C`, for which the inhibition of growth at 100 µg/mL is 8.85%.

As usually defined, the Ki is the dissociation constant of the complex between target and ligand, obtained from inhibition or displacement. For orientation: IC50 means the midpoint of a concentration-inhibition curve. Read a high IC50 as lower potency.
